In EP1078634A1, “Medicament for inhibiting NF-kB” (Max Zeller Söhne AG, priority 1999, dated 2001):

Target: T1, COX-2 (Homo sapiens, UniProt P35354)
T1 construct: Dabei wurden Mono Mac 6-Zellen mit unterschiedlichen Konzentrationen der Testsubstanzen während 30 min inkubiert; endogenous in cells; host or cells: Mono Mac 6 cells, LPS-stimulated
T1 sequence (P35354 18-604): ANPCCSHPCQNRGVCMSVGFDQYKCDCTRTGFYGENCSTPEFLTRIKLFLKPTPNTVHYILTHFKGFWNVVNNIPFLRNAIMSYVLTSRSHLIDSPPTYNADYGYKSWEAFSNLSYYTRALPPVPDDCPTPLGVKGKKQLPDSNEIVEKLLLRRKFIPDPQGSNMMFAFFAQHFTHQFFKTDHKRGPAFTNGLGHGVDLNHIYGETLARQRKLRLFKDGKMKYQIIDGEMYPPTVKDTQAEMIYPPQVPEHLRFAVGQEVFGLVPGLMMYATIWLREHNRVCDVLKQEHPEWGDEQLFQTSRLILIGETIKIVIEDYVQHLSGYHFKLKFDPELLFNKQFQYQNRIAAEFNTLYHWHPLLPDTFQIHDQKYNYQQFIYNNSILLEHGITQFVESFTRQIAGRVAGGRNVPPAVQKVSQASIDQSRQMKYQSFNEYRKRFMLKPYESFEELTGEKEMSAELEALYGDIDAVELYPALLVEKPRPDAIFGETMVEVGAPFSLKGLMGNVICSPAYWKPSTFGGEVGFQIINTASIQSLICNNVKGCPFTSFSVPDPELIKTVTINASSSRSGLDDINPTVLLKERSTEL
Assay: COX-2 inhibition in LPS-stimulated Mono Mac 6 cells (Keto PGF 1α ELISA, method of Berg et al.)
Type: cell-based
Settings: COX-2 versus COX-1, in words
Description: Die Bestimmung der COX-2 inhibitorischen Wirkung der gemäss Beispiel 2 synthetisierten Verbindungen wurde mit Mono Max 6-Zellen nach der Methode von Berg et al., J. Pharmaco. Toxicol.
Dabei wurden Mono Mac 6-Zellen mit unterschiedlichen Konzentrationen der Testsubstanzen während 30 min inkubiert, anschliessend Lipopolysaccharid (LPS, 100 ng/ml) zupipettiert und während weiteren 6 Stunden inkubiert. Anschliessend wurde Arachidonsäure zugegeben (Endkonz. 30 µM), während 15 Min. inkubiert und das gebildete Keto PGF 1α mittels ELISA bestimmt.
In einer Variante wurden Testsubstanz und LPS zeitgleich eingesetzt. Die Messung der COX1 Hemmung erfolgte in HEL-Zellen nach der Methode von Berg et al., J. Pharmacol. Toxicol. […] Dabei wurden HEL Zellen mit unterschiedlichen Konzentrationen der Testsubstanzen während 30 Min. inkubiert, anschliessend Arachidonsäure zugesetzt (Endkonz. 30 uM), während 15 Min. inkubiert und das gebildete Tromboxan B2 mittels ELISA gemessen.

Compound | präferentielle Hemmung der induzierbaren COX-2
O=C1c2cc(Cl)ccc2-n2c1nc1cc(N3CCOCC3)ccc1c2=O [Verbindung 86] | deutliche präferentielle Hemmung der induzierbaren COX-2

Tested on: NF-kB
Assay: NF-kB binding to DNA, electrophoretic mobility shift assay (EMSA) with Jurkat T cells
Type: cell-based
Settings: TNF-a stimulation
Text: Die in Beispiel 2 hergestellten Substanzen wurden in zellfreien und zellulären Testsystemen nach bekannten Methoden auf NF-kB hemmende Wirkung geprüft. […] Bestimmt wurde die in-vivo und die in-vitro NF-kB Bindung an DNA durch Messung der elektrophoretischen Mobilitätsverschiebung.
Die in vivo Bindung wurde mit Jurkat T-Zellen durchgeführt. Die Zellen wurden während einer Stunde mit verschiedenen Konzentrationen der verschiedenen Extrakte inkubiert und anschliessend mit TNF-a während einer Stunde stimuliert. Total-Protein-Extrakte der Zellen wurden gewonnen und in einem Assay auf elektrophoretische Mobilitätsverschiebung (electrophoretic mobility shift asasy, EMSA) auf NF-kB-bindende Aktivität geprüft.
Die in vitro Bindung wurde ebenfalls mit Jurkat T-Zellen geprüft. Zellextrakte von stimulierten wie unstimulierten Zellen wurden gewonnen. Gleiche Proteinmengen (10-20 µg) wurden 2 Stunden mit Konzentrationsreihen der verschiedenen Isatis-Extrakte inkubiert und schliesslich auf elektrophoretische Mobilitätsverschiebung (EMSA) analysiert.

Compound | NF-kB: Grenzkonzentration, bei der eben noch ein Hemmeffekt im EMSA feststellbar ist
O=C1c2ccccc2-n2c1nc1ccc(Cl)cc1c2=O [Verbindung 5] | 50 µM/Liter
O=C1c2cc(Cl)ccc2-n2c1nc1ccccc1c2=O [Verbindung 10] | 5 µM/Liter
Nc1ccc2nc3n(c(=O)c2c1)-c1ccc(F)cc1C3=O [Verbindung 20] | 5 µM/Liter
Cc1cc(C)c2nc3n(c(=O)c2c1)-c1ccc(F)cc1C3=O [Verbindung 24] | >100 µM/Liter
CN1CCN(c2ccc3c(=O)n4c(nc3c2)C(=O)c2cc(F)ccc2-4)CC1 [Verbindung 32] | 10 µM/Liter
CCOC(=O)c1ccc2c(c1)C(=O)c1nc3ccccc3c(=O)n1-2 [Verbindung 37] | >100 µM/Liter
CC1CN(c2cc3c(cc2F)C(=O)c2nc4ccccc4c(=O)n2-3)CCN1C(=O)OC(C)(C)C (stereo not drawn) [Verbindung 42] | >100 µM/Liter
CCCCCCCCS(=O)(=O)c1ccc2c(c1)C(=O)c1nc3c(OC)cccc3c(=O)n1-2 [Verbindung 69] | >100 µM/Liter
O=C1c2cc(Cl)ccc2-n2c1nc1cc(N3CCOCC3)ccc1c2=O [Verbindung 86] | 0,5 µM/Liter
CN(CC(=O)O)c1ccc2c(=O)n3c(nc2c1)C(=O)c1cc(Cl)ccc1-3 [Verbindung 99] | 1 µM/Liter
CN(CCO)c1ccc2c(=O)n3c(nc2c1)C(=O)c1cc(OC(F)(F)F)ccc1-3 [Verbindung 110] | 5 µM/Liter
